C[C@@H](O)[C@H]1C(=O)N2C(C(=O)[O-])=C(SC3Cn4cnc[n+]4C3)[C@H](C)[C@H]12 (stereo not given in full)
in water
Details	solubility (mole fraction)
283.15 K	0.000323
288.15 K	0.000367
293.15 K	0.000413
298.15 K	0.000463
303.15 K	0.000521
308.15 K	0.000584
313.15 K	0.000649
318.15 K	0.000721
323.15 K	0.000807

CC1=C(/C=C/C(C)=C/C=C/C(C)=C/C=C/C=C(C)/C=C/C=C(C)/C=C/C2=C(C)CCCC2(C)C)C(C)(C)CCC1
293.15 K
Details	solubility (mole fraction)
in 1,2-dimethoxyethane	6.3e-05
in 1-hexene	0.000187
in 2-butanone	9.1e-05
in MTBE	0.000119
in acetone	1.4e-05
in cyclohexane	0.000302
in cyclohexanone	0.00032
in dibutyl ether	0.000158
in diglyme	9.6e-05
in n-hexane	8.9e-05
in n-octanol	2.79e-05
in tert-amyl methyl ether	0.00018
in toluene	0.00109

CC1(C)S[C@@H]2[C@H](NC(=O)COc3ccccc3)C(=O)N2[C@H]1C(=O)[O-].[K+]
in ethanol
Details	solubility (mole fraction)
278.15 K	0.00047
283.15 K	0.000485
293.15 K	0.000866
298.15 K	0.00117
303.15 K	0.00207
308.15 K	0.0029
313.15 K	0.00428

COc1ccc2c(c1)c(CC(=O)O)c(C)n2C(=O)c1ccc(Cl)cc1
in acetone
Details	solubility (mole fraction)
293 K	0.0183
298 K	0.0208
303 K	0.0236
308 K	0.0273
313 K	0.0316
318 K	0.0365

Reference: BigSolDB 2.1
